The source of these data is US4863899A, “Biologically active polypeptides” (priority 1987, dated 1989).

For one assay, the system named is anti-KLH-peptide 1 IgG. Put plainly: Solid phase RIA, 125I anti-KLH-peptide 1 IgG on BSA-peptide 1. In kind it is binding, rabbit. The protocol:
TGF peptide 1 was coupled to keyhole limpet hemocyanin (KLH) or bovine serum albumin (BSA) by thiol/maleimide linkage (King et al. (1979) J. Immunol. Methods 28, pp. 201-206). Carrier-peptide complexes were purified by gel filtration. An average of 60 moles peptide/mole KLH and 20 moles peptide/mole BSA was achieved. Rabbits were immunized with the KLH-peptide 1 conjugate by multiple subcutaneous (s.c.) and intramuscular (i.m.) injections of 2 mg protein in complete Freund's adjuvant. Rabbits were boosted s.c. every two weeks with the immunogen in incomplete Freund's adjuvant. The IgG fraction of the antiserum after 5 boosts was used for immunoassays and radiolabeled using Na^125 I (NEN) and Enzymobeads (Bio-Rad) to 4×10^5 cpm/μg protein. Polyvinyl chloride 96-well plates (Costar) were coated with 200 μg/mL BSA-peptide 1 conjugate and countercoated with 10% normal rabbit serum in phosphate-buffered saline. Plates were incubated for 4 hours at 37° C. with [^125 I]anti-KLH-peptide 1 IgG (50,000 cpm/well) in the presence or absence of inhibitors, washed and individual wells were counted.

The target of assay [1] is T1, EGF receptors on A-431 human epidermoid carcinoma cells (Homo sapiens, UniProt P00533).
T1 construct: A-431 human epidermoid carcinoma cells or human foreskin fibroblasts (HFF); endogenous in cells; host or cells: A-431 human epidermoid carcinoma cells
Put plainly: Radioreceptor assay, 125I-EGF binding to cells (Example XII). As to the method:
(§1) A-431 human epidermoid carcinoma cells or human foreskin fibroblasts (HFF), established from primary cultures, were grown to confluence in 24-well cluster dishes (Costar) in Dulbecco's […] (DMEM, Gibco) containing 10% fetal calf serum (FCS, Hyclone). EGF was radio-iodinated as above to between 4×10^4 and 8×10^4 cpm/ng protein. Cells were incubated at 4° C. for 60 minutes with 1 nM [^125 I]EGF in the presence of inhibitor peptides in DMEM ([…]; 20 mM Hepes) containing 0.1% BSA. Cells were washed 3× with cold buffer, lysed with 0.1 N NaOH, and cell-associated radioactivity was measured (γ-counter). Nonspecific binding assessed in the presence of a 100× excess of cold EGF was less than 5% and 10% of the specific binding for A-431 and HFF cells, respectively.

Assay [2] deals with T2, EGF receptors on human foreskin fibroblasts (HFF) (Homo sapiens, UniProt P00533).
T2 construct: human foreskin fibroblasts (HFF), established from primary cultures; endogenous in cells; host or cells: human foreskin fibroblasts (HFF), primary-culture derived
The assay is described as above. As to the method: as §1

The subject of assay [3] is EGF-induced DNA synthesis in quiescent HFF. Put plainly: Cell proliferation assay, inhibition of EGF-induced mitogenesis. In kind it is cell-based, human. The note with it: 3H-methylthymidine incorporation in quiescent HFF induced by 1 nM EGF. As to the method:
(§2) HFF cells were grown to confluence in 48-well cluster dishes in DMEM-10% FCS and brought to quiescence by starvation for 2 days in DMEM-0.5% FCS. Mitogens and peptides were incubated with cells at 37° C. for 18 hours prior to a 4 hour pulse with 1 μCi [^3 H]methyl-thymidine (NEN) and trichloroacetic acid precipitable radioactivity was determined.

The subject of assay [4] is TGFα-induced DNA synthesis in quiescent HFF. The experiment in a line: Cell proliferation assay, inhibition of TGFα-induced mitogenesis. In kind it is cell-based, human. Conditions: 3H-methylthymidine incorporation in quiescent HFF induced by 1 nM TGFα. As to the method:
as §2

The test system of assay [5] is antiserum against peptide III. Put plainly: Radioimmunoassay, inhibition of precipitation of 125I-peptide III. In kind it is binding, rabbit. The note with it: for Relative Inhibitory Activity: half-maximal inhibitory concentration relative to peptide III, standard RIA, > = highest concentration tested; for inhibition of precipitation of 125I-peptide III, in words: compared with peptide III. As to the method: Rabbits were immunized by subcutaneous injection of 1 mg of conjugate injected subcutaneously at four separate sites. Two booster injections were administered at bi-weekly intervals following the initial injection. The serum used in this study was collected eighty days after the initial injection. An immunoglobulin fraction of this serum was prepared by ammonium sulfate precipitation. The product of antibodies specific for immunizing peptide was monitored with a solid phase enzyme-linked immunoabsorbent assay.
Reactants were mixed in a final volume of 50 microliters of a solution containing: 20 mM sodium phosphate, at pH 7.4; 200 mM NaCl: 40 mM dithiothreitol; 0.1% (w:v) BSA; 0.1% (w:v) NaN3 : ^125 I-peptide III; (10^4 cpm); antiserum at a final dilution of 1/15,000; and other additions, as specified. The reaction was initiated by the addition of antiserum and continued at 23° C. for 90 minutes. An equal volume of 10% formalin-fixed Staphalococcus A (Pansorbin, Calbiochem) was then added and incubation was continued for an additional 30 minutes at 23° C. The immunoadsorbant was removed by sedimentation through a cushion of 10% (w:v) sucrose and the amount of bound ^125 I-peptide III was determined using a gamma counter. Under these conditions, approximately 25% of ^125 I-peptide was bound by antibody in the absence of competitor. The amount of bound peptide III was corrected for non-specific binding measured in the absence of antibody (less than 5% of the total) and expressed as a percentage of maximal binding. Concentrations of competitors were expressed as the amount of peptide III required to give an equivalent inhibition of precipitation.

The test system of assay [6] is second degree burns. The experiment in a line: Wound healing of second degree burns, planimetry (Example VII). In kind it is in vivo, Yorkshire piglet. Conditions: once a day, after 7 days. As to the method: Another experiment was performed to measure the effect of the analog of human TGF described above on the healing of second degree burns. The experimental conditions were similar to those described above. However, the following changes were made in the procedures. One Yorkshire piglet was anesthetized with Ketamine and each of 12 burns was made using the template for 11 seconds per burn. After each blister was removed, the wounds were treated once a day with one of the following:
After 7 days, the eschar was removed.

The subject of assay [7] is second degree burns. The experiment in a line: Wound healing test on second degree burns (Example VI). In kind it is in vivo, piglets. The note with it: Pig 3, right side, 9 days post-burn.
In another assay the test system is fetal rat long bones. Put plainly: Bone resorption in vitro, 45Ca release. Format: cell-based. As to the method:
Synthetic rat TGF was prepared as described above in Example V. Purity of the protein was confirmed by sodium dodecyl sulfate-polyacrylamide gel electrophoresis, amino acid analysis, and reverse phase high-performance liquid chromatography. The biological activity of TGF preparations and synthetic TGF was monitored by means of an EGF radioreceptor assay. (Todaro et al. (1976) Nature 264, 26.) Bone resorption was assessed by measuring the release of ^45 Ca from previously labeled fetal rat long bones. Pregnant rats at the 18th day of gestation were injected with 200 μCi of ^45 Ca. (Raisz (1975) J. Clin. Invest. 44, 103.) The mothers were killed on the 19th day of gestation, and the fetuses were removed. The mineralized shafts of the radii and ulnae were dissected free of surrounding tissue and cartilage and placed in organ culture. The bones were incubated in BGJb medium (Irvine Scientific) for 24 hours at 37° C. in a humidified atmosphere of 5 percent of CO2 and 95 percent air to allow for the exchange of loosely complexed ^45 Ca. The bones were then cultured for 48 to 120 hours in BGJb medium supplemented with 5 percent fetal calf serum (KC Biologicals) containing control or test substances. […] Statistical significance was determined with Student's t test for unpaired data.

The target in a further assay is antibody to TGF peptide. In kind it is binding. Conditions: 125I-labeled TGF peptide.
The test system of another assay is normal rat kidney cells. Format: cell-based. Conditions: on a ng equivalent basis.
The mark [8] stands for this setting: A-431 cells, read-out: IC50, inhibition of 125I-EGF binding.
Setting [9] is: 1 nM 125I-EGF, read-out: Binding IC50 (M) HFF.

Like-named read-outs stand apart in the source and are kept apart here. Positions of bridges follow the written chain, without caps; N, C: chain ends. Residues, ends and D or L forms follow the SMILES beside them. No end group written: not given here. Some results are limits rather than exact numbers.

On to `CC(C)[C@@H]1NC(=O)CNC(=O)[C@H](C(C)C)NC(=O)[C@H](Cc2ccc(O)cc2)NC(=O)CNC(=O)[C@H](CO)NC(=O)[C@H](Cc2c[nH]cn2)NC(=O)[C@@H](N)CSSC[C@@H](C(=O)O)NC(=O)[C@H](CCCNC(=N)N)NC1=O` [Peptide 1] (H-CHSGYVGVRC-OH; disulfide 1-10), for which the “inhibition of antibody reaction with BSA-TGF peptide” value in the assay on anti-KLH-peptide 1 IgG was “inhibited in a concentration-dependent fashion”. Further, the IC50 (as a rule, the concentration at which inhibition is half-maximal) is 8e-05 M in [1], 6e-05 M in [2], > 10000 nM in assay [3] and > 10000 nM in assay [4]. The “inhibition of 125I-EGF binding to A-431 cells, in words” value in assay [1] (at >10^-6 M) was “partially inhibited”.
Regarding `CC(=O)N[C@H]1CSSC[C@@H](C(N)=O)NC(=O)[C@H](CCCNC(=N)N)NC(=O)[C@H](C(C)C)NC(=O)CNC(=O)[C@H](C(C)C)NC(=O)[C@H](Cc2ccc(O)cc2)NC(=O)CNC(=O)[C@H](CO)NC(=O)[C@H](Cc2c[nH]cn2)NC1=O` [Peptide 2] (Ac-CHSGYVGVRC-NH2; disulfide 1-10), in assay [1] (A-431 cells), the “binding potency as % of EGF or TGF-α” value was “approximately 0.02%”. For the same compound, the IC50 in [1] (setting [8]) worked out at 4e-06 M; in assay [2] (setting [9]) it was 2e-06 M; in assay [3] it was 5000 nM; in assay [4], 3000 nM.
On to “Ac-Cys-His-Ser-Gly-Tyr-Val-Gly-Ala-Arg-Cys-OMe (Ac-CHSGYVGARC-OMe; disulfide 1-10 (inferred)) [Peptide 3]”, for which the IC50 is 4e-07 M in assay [1] (1 nM 125I-EGF, read-out: Binding IC50 (M) A-431); 4e-07 M in [1] (setting [8]); 3e-07 M in assay [2] (setting [9]); 600 nM in assay [3]; 500 nM in assay [4]. In [1] (A-431 cells), the “binding potency as % of EGF or TGF-α” value is listed as ~0.2%.
In the case of “CHSGYVGVRC (cysteine pairing not given here) [Peptide II]”, in assay [5], the “highest concentration without inhibition of precipitation of 125I-peptide III” value is > 1.1 µM and the “Relative Inhibitory Activity” value was > 1500.
For the compound “CHSGYVGVRCEHADLLA (cysteine pairing not given here) [Peptide III]”, in assay [5], the “Relative Inhibitory Activity” value worked out at 1.
With VVSHFNKCPDSHT [Peptide I], in assay [5], the “inhibition of precipitation of 125I-peptide III, in words” value was “ineffective as a competitor” and the “Relative Inhibitory Activity” value is given as > 1500.
With hEGF: Human EGF, the figures for the “PERCENTAGE OF WOUND HEALED Burn A” value in the assay on second degree burns [6] (0.1 μg/ml in Silvadene) and with second degree burns [6] (1 μg/ml in Silvadene) were 17 percentage and 14 percentage, respectively. Moreover, the entries for the “PERCENTAGE OF WOUND HEALED Burn B” value with second degree burns [6] (0.1 μg/ml in Silvadene) and in the assay with second degree burns [6] (1 μg/ml in Silvadene) were 14 percentage and 17 percentage, respectively.
As to “synthetic rTGF: rat TGF of the formula of Example II made by stepwise solid-phase synthesis, purified to homogeneity”, the “inhibition of precipitation of 125I-peptide III, in words” value in assay [5] is listed as “equally effective”. Besides, the “approximate percentage of burn epithelialized” value with second degree burns [7] (0.1 μg/ml in Silvadene) worked out at 90%; with second degree burns [7] (0.5 μg/ml in Silvadene), 65%; in the assay with second degree burns [7] (10 μg/ml in Silvadene) it was 90%. In the assay on fetal rat long bones, the “bone resorption during the first 48 hours of bone culture” value is recorded as “no significant bone resorption”. In addition, the “effective concentrations for bone resorption compared with EGF” value in the assay with fetal rat long bones is given as “about one order of magnitude less than EGF”. The “time required to stimulate bone resorption” value in the assay with fetal rat long bones was “at least 72 hours”. Also, the “concentrations that stimulated bone resorption” value with fetal rat long bones (three separate experiments (Example XIII)) is recorded as “greater than 2 ng EGF equivalents/ml”; with fetal rat long bones (three separate experiments (Example XIV)) it was “greater than 2 ng of EGF equivalents per milliliter”. The “inhibition of antibody reaction with BSA-TGF peptide” value in the assay with anti-KLH-peptide 1 IgG is “slightly less”. The “antigen concentration for 50% displacement of antigen from antibody” value at antibody to TGF peptide was 0.2-0.3 ng equivalents of EGF. For the same compound, in the assay on normal rat kidney cells, the “colonies in soft agar” value came to 154 colonies.
